“Also recorded” adds a separate entry of the source.
Assays:
[1] = tested on: mixed glial primary culture; assay: Suppression of TNF-α release in mixed glial primary culture after exposure to LPS; assay type: cell-based, murine; conditions: FIGS. 11A and 11B
Protocol: In vitro methods have been developed using cultured cells for evaluating the ability of a compound, such as a peptide, to suppress glial activation. Laskowitz et al., (2001) Exp. Neurol., 167:74-85. Glial cell cultures were grown and maintained under standard conditions. Cultured glial cells may include primary murine mixed glial cell cultures, murine BV-2 microglial cells, and human C3 microglial cells. Adherent glial cells were washed with OptiMEM® medium (available from Invitrogen Corp.) to remove serum and covered with fresh OptiMEM® medium containing peptide.
Larger peptides or proteins may need to be tested at higher concentrations to observe measurable suppression of glial activation. If using primary murine cells and BV-2 cells, cells are stimulated with 100 ng/ml E. coli LPS (available from Sigma-Aldrich Co.), and supernatant is collected six hours after LPS stimulation and assayed for nitrite (using a colorimetric Griess reagent system, available from Promega Corp.) and/or TNF-α (using a solid-phase ELISA kit, available from Invitrogen Corp.). If using human C3 cells, cells are stimulated with 200 μg/ml polyinosinic acid 5′ (available from Sigma-Aldrich Co.), and supernatant is collected 5 days after stimulation and assayed for TNF-α using a solid-phase ELISA kit (available from Invitrogen Corp.).
The protective activity against brain injury-downregulating CNS inflammatory response was determined for ApoE mimetic peptides, VR-55 (SEQ ID NO: 4), VL-5-1 (SEQ ID NO: 5) and VL-5-3 (SEQ ID NO: 10).

[2] = tested on: mice with middle cerebral artery occlusion (focal ischemia-reperfusion); assay: Rotorod vestibulomotor function after modified middle cerebral artery occlusion (MCAO); assay type: in vivo, mouse
Excerpt: A modified middle cerebral artery occlusion (MCAO) model (Huang et al., (1994) Science, 265:1883-1885; Laskowitz et al., (1997) J. Cereb. Blood Flow Metab., 17:753-758) was used to determine the effect of the mimetic peptides on neurological function after stroke and to evaluate the peptide's efficacy as a therapeutic agent for stroke. The mice were endotracheally intubated after anesthesia induction with 4.6% isoflurane, and the lungs were mechanically ventilated with 1.6% isoflurane in 30% O2/70% N2. Via a midline cervical skin incision, the right common carotid artery was identified. The external carotid artery was ligated and transected. The internal carotid artery was dissected distally until the origin of the pterygopalatine artery was visualized. A 6-0 nylon monofilament with blunted tip lightly coated with silicone was inserted into the proximal external carotid artery stump and advanced 11 mm into the internal carotid artery to occlude the middle cerebral artery. After 90 min, the filament was removed to restore blood perfusion, and the skin incision closed with suture. Isoflurane was discontinued and the mice were extubated upon the recovery of spontaneous respiration. Post-injury mice were placed in an oxygen-enriched environment (FIO2=50%) for 1 hr and then returned to their cages. Rectal temperature was continuously monitored and servoregulated with surface heating/cooling at 37° C. throughout the procedure.
Two groups of 10-12 week old male C57Bl/6J mice, a control group (n=12) and a VR-55-treated group (n=9), received MCAO. […]
An automated Rotorod (Ugo Basile, Comerio, Italy) was used to assess vestibulomotor function, as previously described above. […] The average time to fall from the rotating cylinder in the latter 3 trials was recorded as baseline functional Rotorod latency. […] The average latency to fall from the rod was recorded. […]

## Ac-VSRRR-NH2 [VR-55, Ac-VSRRR-NH2]
[1]
  release of inflammatory cytokine TNF-α: inhibition of microglial TNF-α secretion; also recorded: suppress the release of inflammatory cytokine TNF-α
[2]; Day 3 post-injury, 0.05 mg/kg iv at 30 min and 6 hrs after reperfusion
  functional Rotorod latency compared to control mice: improvement in functional Rotorod latency
[2]; Day 3 post-injury, 0.05 mg/kg iv at 30 min and 6 hrs after reperfusion, control mice 161+/−32 sec
  functional Rotorod latency: 216 ± 26 s
[2]; day before MCAO, control mice 217+/−20 sec
  baseline functional Rotorod latency: 214 ± 22 s

From US12071469B2, “Peptide compounds for suppressing inflammation” (Duke University, priority 2011, dated 2024)
